Laboratory results from patent US20080145383A1, “Method for Solubilizing Peptide Mixtures” (priority 2004, published 2008).
Peptide text beside a SMILES is read from it.

Columns and labels:
[1] = Solubility of the single peptides in water and DMSO; format: physicochemical; settings: single peptide
Method: In the scope of the present invention peptides are characterised by their solubility. Peptides which are soluble in an aqueous solution less than 100 μg/ml are considered hydrophobic. On the other hand hydrophilic peptides dissolve in a buffered aqueous solution in concentration over 100 μg/ml. Hydrophilic peptides may further be divided into cationic (>20% basic amino acids including lysine, arginine, histidine), anionic (>20% acidic amino acids including aspartic acid, glutamic acid) and hydroxyl-rich peptides (>30% —OH containing amino acids like serine, threonine, tyrosine).
The peptide mixture contains 6 peptides (see table 1), which show a broad range of solubility. […] Peptides 1236, 1240, and 1242 can sequentially be dissolved in water, provided that the final pH is adjusted to pH 8.5. At lower pH a gel is formed presumably due to charge interactions and/or hydrogen bond formation. This gel can not be sterile filtered as it blocks the filter immediately. However, upon addition of poly-L-arginine (pR) to the aqueous solution of the three peptides a precipitate forms that makes sterile filtration of the solution impossible.
As with the formulation of example 1, for the manufacturing of a suspension formulation it is necessary first to dissolve peptides 83 and 84 in an aqueous buffer solution and peptides 87, 89, and 1426 in DMSO. After sterile filtration the solutions can be combined to form the final suspension.

[2] = suspension formulation stored at room temperature (Figure C)

SMILES | solubility in DMSO [1] | solubility in water [1] | solubility in water ([1]; listed as Ipep 84) | degradation [2]
CC[C@H](C)[C@H](NC(=O)[C@H](CCC(N)=O)NC(=O)CNC(=O)CNC(=O)CNC(=O)[C@@H]1CCCN1C(=O)[C@H](Cc1ccccc1)NC(=O)[C@@H](N)CCCCN)C(=O)N[C@H](C(=O)NCC(=O)NCC(=O)N[C@H](C(=O)N[C@@H](Cc1ccc(O)cc1)C(=O)N[C@@H](CC(C)C)C(=O)N[C@@H](CC(C)C)C(=O)N1CCC[C@H]1C(=O)N[C@@H](CCCNC(=N)N)C(=O)N[C@@H](CCCNC(=N)N)C(=O)NCC(=O)N1CCC[C@H]1C(=O)N[C@@H](CCCNC(=N)N)C(=O)N[C@@H](CC(C)C)C(=O)O)C(C)C)C(C)C [Peptide 83] (H-KFPGGGQIVGGVYLLPRRGPRL-OH; N-terminus and C-terminus assumed) | soluble | soluble |  | 
CC(C)C[C@H](NC(=O)[C@@H](NC(=O)[C@H](CC(C)C)NC(=O)[C@@H](NC(=O)[C@H](CCCCN)NC(=O)[C@H](Cc1ccc(O)cc1)NC(=O)CN)C(C)C)C(C)C)C(=O)N[C@@H](CC(N)=O)C(=O)N1CCC[C@H]1C(=O)N[C@@H](CO)C(=O)N[C@H](C(=O)N[C@@H](C)C(=O)N[C@@H](C)C(=O)N[C@H](C(=O)O)[C@@H](C)O)C(C)C [Peptide 84] | soluble | soluble | water soluble | 
CC[C@H](C)[C@H](NC(=O)[C@H](Cc1ccc(O)cc1)NC(=O)CNC(=O)[C@H](CCSC)NC(=O)[C@H](CC(C)C)NC(=O)[C@@H](N)CC(=O)O)C(=O)N1CCC[C@H]1C(=O)N[C@@H](C)C(=O)N[C@H](C(=O)O)C(C)C [Peptide 87] (H-DLMGYIPAV-OH; N-terminus and C-terminus assumed) | dissolve easily in DMSO | poorly water soluble |  | 
CC[C@H](C)[C@H](N)C(=O)N[C@@H](CC(=O)O)C(=O)N[C@@H](CCC(=O)O)C(=O)N[C@@H](CC(C)C)C(=O)N[C@@H](CCCCN)C(=O)N[C@H](C(=O)N[C@@H](CC(N)=O)C(=O)N[C@@H](CO)C(=O)N[C@@H](CO)C(=O)N[C@@H](CC(C)C)C(=O)N[C@@H](CC(C)C)C(=O)N[C@H](C(=O)N[C@@H](CO)C(=O)N[C@H](C(=O)N[C@@H](CC(C)C)C(=O)N[C@H](C(=O)N[C@@H](Cc1ccc(O)cc1)C(=O)N[C@@H](Cc1c[nH]cn1)C(=O)N[C@H](C(=O)N[C@H](C(=O)O)C(C)C)C(C)C)[C@@H](C)O)[C@@H](C)CC)[C@@H](C)O)[C@@H](C)O [Peptide 1235] (H-IDELKTNSSLLTSILTYHVV-OH; N-terminus and C-terminus assumed) | only dissolve in DMSO | hydrophobic |  | 
CC[C@H](C)[C@H](NC(=O)[C@H](CC(N)=O)NC(=O)[C@@H](NC(=O)[C@@H](NC(=O)CNC(=O)[C@H](C)NC(=O)[C@H](C)NC(=O)[C@H](C)NC(=O)[C@H](CCC(N)=O)NC(=O)[C@H](C)NC(=O)[C@@H](NC(=O)CNC(=O)[C@H](C)NC(=O)CNC(=O)[C@H](CO)NC(=O)CNC(=O)[C@@H](N)[C@@H](C)O)[C@@H](C)CC)[C@@H](C)O)C(C)C)C(=O)O [Peptide 1236] | does not dissolve in DMSO | slowly dissolves in water |  | 
CC[C@H](C)[C@H](NC(=O)[C@@H](NC(=O)[C@H](C)NC(=O)[C@@H](NC(=O)[C@H](CO)NC(=O)[C@H](CO)NC(=O)[C@H](CCCCN)NC(=O)[C@H](CC(C)C)NC(=O)[C@H](CC(=O)O)NC(=O)[C@H](CO)NC(=O)[C@@H](N)C(C)C)[C@@H](C)O)C(C)C)C(=O)N1CCC[C@H]1C(=O)NCC(=O)N[C@@H](Cc1ccc(O)cc1)C(=O)N1CCC[C@H]1C(=O)N[C@H](C(=O)N[C@@H](C)C(=O)NCC(=O)N[C@@H](CCC(N)=O)C(=O)N[C@H](C(=O)O)C(C)C)C(C)C [Peptide 1240] (H-VSDLKSSTAVIPGYPVAGQV-OH; N-terminus and C-terminus assumed) | can also be dissolved in DMSO | water soluble |  | 
CC(C)C[C@H](NC(=O)[C@H](Cc1ccccc1)NC(=O)[C@@H](N)CC(N)=O)C(=O)N[C@@H](CC(C)C)C(=O)N1CCC[C@H]1C(=O)N[C@@H](CC(=O)O)C(=O)N[C@@H](C)C(=O)N[C@@H](CCC(N)=O)C(=O)N[C@@H](C)C(=O)N[C@@H](C)C(=O)N[C@@H](C)C(=O)N[C@@H](C)C(=O)NCC(=O)N[C@@H](Cc1ccccc1)C(=O)N[C@@H](C)C(=O)N[C@@H](CO)C(=O)N[C@@H](CCCCN)C(=O)O [Peptide 1241] (H-NFLLPDAQAAAAGFASK-OH; N-terminus and C-terminus assumed) | only dissolve in DMSO | hydrophobic |  | 
CC[C@H](C)[C@H](NC(=O)[C@H](CC(N)=O)NC(=O)[C@@H](NC(=O)[C@H](CC(N)=O)NC(=O)[C@@H](N)Cc1ccc(O)cc1)[C@@H](C)CC)C(=O)N[C@@H](CO)C(=O)N[C@@H](CC(C)C)C(=O)N1CCC[C@H]1C(=O)N[C@@H](CO)C(=O)N[C@@H](Cc1ccc(O)cc1)C(=O)N[C@@H](Cc1ccc(O)cc1)C(=O)N1CCC[C@H]1C(=O)N[C@@H](CC(=O)O)C(=O)N[C@@H](CCC(N)=O)C(=O)N[C@@H](CCCCN)C(=O)N[C@@H](CO)C(=O)N[C@@H](CC(C)C)C(=O)N[C@@H](CCC(=O)O)C(=O)N[C@@H](CC(N)=O)C(=O)N[C@@H](Cc1ccc(O)cc1)C(=O)O [Peptide 1242] (H-YNINISLPSYYPDQKSLENY-OH; N-terminus and C-terminus assumed) | can also be dissolved in DMSO | water soluble |  | 
CC[C@H](C)[C@H](NC(=O)CNC(=O)[C@H](CO)NC(=O)[C@@H](NC(=O)[C@H](Cc1ccccc1)NC(=O)[C@H](CC(N)=O)NC(=O)[C@H](Cc1c[nH]c2ccccc12)NC(=O)[C@H](CCSC)NC(=O)[C@@H](N)Cc1c[nH]cn1)[C@@H](C)CC)C(=O)N[C@@H](CCC(N)=O)C(=O)N[C@@H](Cc1ccc(O)cc1)C(=O)N[C@@H](CC(C)C)C(=O)N[C@@H](C)C(=O)NCC(=O)N[C@@H](CC(C)C)C(=O)N[C@@H](CO)C(=O)N[C@H](C(=O)N[C@@H](CC(C)C)C(=O)N1CCC[C@H]1C(=O)NCC(=O)N[C@@H](CC(N)=O)C(=O)N1CCC[C@H]1C(=O)N[C@@H](C)C(=O)O)[C@@H](C)O [Peptide 1426] (H-HMWNFISGIQYLAGLSTLPGNPA-OH; N-terminus and C-terminus assumed) | only soluble in DMSO |  |  | 
CC[C@H](C)[C@H](N)C(=O)NCC(=O)N[C@@H](CC(C)C)C(=O)NCC(=O)N[C@@H](CCCCN)C(=O)N[C@H](C(=O)N[C@@H](CC(C)C)C(=O)N[C@H](C(=O)N[C@@H](CC(=O)O)C(=O)N[C@H](C(=O)N[C@@H](CC(C)C)C(=O)N[C@@H](C)C(=O)NCC(=O)N[C@@H](Cc1ccc(O)cc1)C(=O)NCC(=O)N[C@@H](C)C(=O)NCC(=O)N[C@H](C(=O)N[C@@H](C)C(=O)NCC(=O)N[C@@H](C)C(=O)N[C@@H](CC(C)C)C(=O)N[C@H](C(=O)N[C@@H](C)C(=O)N[C@@H](Cc1ccccc1)C(=O)N[C@@H](CCCCN)C(=O)O)C(C)C)C(C)C)[C@@H](C)CC)C(C)C)C(C)C [Peptide 1798] (H-IGLGKVLVDILAGYGAGVAGALVAFK-OH; N-terminus and C-terminus assumed) |  | water soluble on its own |  | 
CC[C@H](C)[C@H](NC(=O)[C@H](CCC(N)=O)NC(=O)CNC(=O)CNC(=O)CNC(=O)[C@@H]1CCCN1C(=O)[C@H](Cc1ccccc1)NC(=O)[C@@H](N)CCCCN)C(=O)N[C@H](C(=O)NCC(=O)NCC(=O)N[C@H](C(=O)N[C@@H](Cc1ccc(O)cc1)C(=O)N[C@@H](CC(C)C)C(=O)N[C@@H](CC(C)C)C(=O)N1CCC[C@H]1C(=O)N[C@@H](CCCNC(=N)N)C(=O)N[C@@H](CCCNC(=N)N)C(=O)NCC(=O)N1CCC[C@H]1C(=O)N[C@@H](CCCNC(=N)N)C(=O)N[C@@H](CC(C)C)C(=O)NCC(=O)N[C@H](C(=O)N[C@@H](CCCNC(=N)N)C(=O)N[C@@H](C)C(=O)N[C@H](C(=O)N[C@@H](CCCNC(=N)N)C(=O)N[C@@H](CCCCN)C(=O)O)[C@@H](C)O)C(C)C)C(C)C)C(C)C [Peptide 1835] (H-KFPGGGQIVGGVYLLPRRGPRLGVRATRK-OH; N-terminus and C-terminus assumed) |  | water soluble |  | 
CC[C@H](C)[C@H](NC(=O)[C@@H](NC(=O)[C@H](Cc1ccccc1)NC(=O)[C@H](CC(N)=O)NC(=O)[C@@H](NC(=O)[C@@H](NC(=O)[C@H](CS)NC(=O)[C@@H]1CCCN1C(=O)[C@H](Cc1ccc(O)cc1)NC(=O)[C@H](Cc1c[nH]cn1)NC(=O)[C@H](Cc1c[nH]c2ccccc12)NC(=O)[C@H](CC(C)C)NC(=O)[C@H](CCCNC(=N)N)NC(=O)[C@H](Cc1ccc(O)cc1)NC(=O)[C@@H]1CCCN1C(=O)[C@H](Cc1ccc(O)cc1)NC(=O)[C@@H](N)CC(=O)O)[C@@H](C)O)C(C)C)[C@@H](C)O)C(=O)N[C@@H](Cc1ccccc1)C(=O)N[C@@H](CCCCN)C(=O)N[C@H](C(=O)O)C(C)C [Peptide 1846] (H-DYPYRLWHYPCTVNFTIFKV-OH; N-terminus and C-terminus assumed) |  |  |  | oxidation of Ipep 1846 to its dimer
